Experiment in all cases: NCI anticancer screen, dose series, 48 h
The test system of assay [1] is M14.
Assay [2] has as its system TK-10.
Assay [3] deals with UACC-257.
In assay [4] the test system is KM12.
In assay [5] the test system is SK-MEL-5.
Assay [6] concerns KM-20L2.
For assay [7], the system named is OVCAR-4.
Assay [8] deals with A549.
The subject of assay [9] is MCF7.
Assay [10] deals with NCI-H23.
In assay [11] the test system is HCC 2998.
For assay [12], the system named is LOX IMVI.
In assay [13] the test system is HOP-92.
The subject of assay [14] is COLO 205.
Assay [15] relates to SNB-19.
In assay [16] the test system is OVCAR-5.
Assay [17] deals with T47D.
Assay [18] has as its system OVCAR-8.
Assay [19] deals with NCI/ADR-RES.
In assay [20] the test system is BT-549.

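How tested: cells in 96-well plates exposed to compound for 48 hours at five concentrations. GI50 = concentration required for 50% inhibition of growth.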 Activity calls are given as the source filed them. Rule as the data show it: active = GI50 up to about 1.1 µM and inactive = higher.

Consider `Cc1nc(N)nc(N)c1-c1ccc(Cl)c(Cl)c1` [METOPRINE], for which the GI50 was 0.162 µM (active) in [1]; 9.2 µM (inactive) in [2]; 3.85 µM (inactive) in assay [3]; 3.05 µM (inactive) in assay [4]; 0.409 µM (active) in [5]; 0.94 µM (active) in assay [6]. The GI50 in assay [7] was 37.9 µM (inactive); in assay [8], 0.0325 µM (active); in [9] it was 0.826 µM (active); in [10] it was 0.378 µM (active); in assay [11] it was 2.91 µM (inactive); in assay [12], 0.054 µM (active). The GI50 in assay [13] is 7.6 µM (inactive); in assay [14], 10.4 µM (inactive); in [15], 2.69 µM (inactive); in [16], 14.2 µM (inactive); in [17], 16.9 µM (inactive); in assay [18] it was 0.603 µM (active). The GI50 in assay [19] was 1.1 µM (active); in assay [20], 21 µM (inactive).
With `CCOC(=O)c1nn2c(nc1=O)sc1ccc3ccccc3c12`, the GI50 in assay [1], in assay [2], in [3], in [4], in [5] and in assay [6] was > 100 µM (inactive) each time. Moreover, the GI50 in assay [7], in assay [8], in [10], in assay [11], in assay [12] and in [13] was > 100 µM (inactive) throughout. Further, the GI50 in assay [14], in assay [15], in [16] and in assay [18] was > 100 µM (inactive) in each case.
